Values after ≈ are worked out from the molar mass of the structure shown. Where two headings read alike, the source gives them in different places.
Assays:
[1] = Cytotoxicity (IC50) on HUVEC; type: cell-based, human; settings: human, human umbilical vascular endothelial cells (HUVEC), normal cells, read-out: Cytotoxicity, IC50 HUVEC
Excerpt: (§1) Human umbilical vascular endothelial cells (HUVECs) were purchased from Cascade Biologics, Inc. (USA). HUVECs were maintained in Medium 200 (Cascade Biologics, Inc. USA) supplemented with 10% fetal bovine serum (FBS; Gibco BRL) and low serum growth supplement (LSGS; Cascade Biologics, Inc. USA). Human dermal fibroblasts (HDFs) were purchased from Cascade Biologics, Inc. (USA). HDFs were maintained in Medium 106 (Cascade Biologics, Inc. USA) supplemented with 10% FBS and low serum growth supplement (LSGS; Cascade Biologics, Inc. USA). The human colon adenocarcinoma cell lines HT-29 were purchased from the ATCC (Manassas, Va. USA). HT-29 were maintained in Dubecco's Modified Eagle Medium (DMEM; Gibco) supplemented with 10% FBS and 100 ng/ml penicillin and […] streptomycin (Life Technologies, Inc., Grand Island, N.Y., USA). For the proliferation assay of cell in log growth (G1), the cells were harvested at 60-80% of confluence. 100 μl of cell suspensions were dispensed onto a Falcon 96-well plates The densities were 6×10^3 cells/well in Medium 200 (for HUVECs), and 9×10^3 cells/well in Medium 106 (for HDFs), and 5×10^3 cells/well in DMEM (for HT-29) supplemented with 10% FBS. The cells were pre-incubated for 24 hours in an incubator (Humidified atmosphere, e.g., at 37° C., 5% CO2). 10 μl of toxicant of various concentrations were added into the culture medium of the plate. The cell cultures were incubated for 48 hours. 10 μl of the Cell Counting Kit-8 (CCK-8; DOJINDO) solution were added and the cell cultures incubated for 1˜4 hours in the incubator. The absorbance was measured at 450 nm, using a microplate reader with a reference wavelength at 600 nm or over.
(§2) Human tumor cell lines (MCF-7, CL1-5, HT-29, Caco-2), human umbilical vascular endothelial cells (HUVEC), and human dermal fibroblasts (HDF) were tested for sensitivity on Angelicae sinensis extracts, ligustilide, n-butylidenephthalide and its derivatives in vitro. The DBTRG-05MG, BCM, HL-60 and J5 cells were grown in RPMI-1640 medium containing 10% fetal calf serum and 100 ng/ml penicillin and […] streptomycin at 37° C. in a humidified atmosphere with 5% CO2. The G5T/VGH, RG2, Ni 8, SVEC and Balb/3T3 cells were cultured in DMEM with 10% fetal calf serum and 100 ng/ml penicillin and […] streptomycin at 37° C. in 5% CO2. Mycoplasma infection of the culture cells was excluded by PCR screening methods before each experiment.
(§3) The effects on cell viability after the treatments with different concentrations of the Angelicae sinensis extracts or the active components purified therefrom were evaluated by modified MTT assay in triplicate. Briefly, the cells (5×10^3) were incubated into 96-well plates containing 100 μl of a growth medium. The cells were permitted to adhere for 24 hours, then treated with 100 μl of the herbal extracts or the active components dissolved in the medium. The control contained DMSO of <0.02% (v/v). After 24, 48 and 72 h incubation, the drug-containing medium was replaced by 50 μl of fresh medium, and cells in each well were incubated in 50 μl of 400 μg/ml MTT for 6-8 h. The medium and MTT were removed later and 100 μl of DMSO was added to each well and to the control, to dissolve the soluble components. Absorbance at 550 nm of the solutions was measured with MRX Microtiter Plate Luminometer (DYNEX, USA). The absorbance of untreated cells was considered as 100%. To evaluate the effects of the extracts or the active components on cell growth rate of GBM cells, 5×10^3 exponentially growing cells were treated with different concentrations for 24, 48, or 72 h. The cytotoxicity of each test substance was determined as an IC50 value, which represents the drug concentration required to cause 50% inhibition. All experiments in this study were performed in triplicate.

[2] = Cytotoxicity (IC50) on HDF; type: cell-based, human; settings: human, human dermal fibroblasts (HDF), normal cells; Table 1, value in parentheses
Excerpt: as §1, §2
as §3, with “To evaluate the effects of the extracts or the active components on cell growth rate of GBM cells, 5×10^3 exponentially growing cells were treated with different concentrations for 24, 48, or 72 h. The cytotoxicity of each test substance was determined as an IC50 value, which represents the drug concentration required to cause 50% inhibition. All experiments in this study were performed in triplicate.” left out

[3] = tested on: MCF-7; assay: Cytotoxicity (IC50) on MCF-7; type: cell-based; settings: Homo sapiens, MCF7
Experimental: as §2
(§4) The effects on cell viability after the treatments with different concentrations of the Angelicae sinensis extracts or the active components purified therefrom were evaluated by modified MTT assay in triplicate. Briefly, the cells (5×10^3) were incubated into 96-well plates containing 100 μl of a growth medium. The cells were permitted to adhere for 24 hours, then treated with 100 μl of the herbal extracts or the active components dissolved in the medium. The control contained DMSO of <0.02% (v/v). […] Absorbance at 550 nm of the solutions was measured with MRX Microtiter Plate Luminometer (DYNEX, USA). The absorbance of untreated cells was considered as 100%. […]

[4] = tested on: RG2; assay: Cytotoxicity (IC50) on RG2; type: cell-based, rat; settings: Rattus norvegicus, RG2
Experimental: as §2, §3

[5] = tested on: A549; assay: Cytotoxicity (IC50) on A549; type: cell-based; settings: Homo sapiens
Experimental: as §3

[6] = tested on: HT-29; assay: Cytotoxicity (IC50) on HT-29; type: cell-based; settings: Homo sapiens
Excerpt: Human umbilical vascular endothelial cells (HUVECs) were purchased from Cascade Biologics, Inc. (USA). HUVECs were maintained in Medium 200 (Cascade Biologics, Inc. USA) supplemented with 10% fetal bovine serum (FBS; Gibco BRL) and low serum growth supplement (LSGS; Cascade Biologics, Inc. USA). Human dermal fibroblasts (HDFs) were purchased from Cascade Biologics, Inc. (USA). HDFs were maintained in Medium 106 (Cascade Biologics, Inc. USA) supplemented with 10% FBS and low serum growth supplement (LSGS; Cascade Biologics, Inc. USA). The human colon adenocarcinoma cell lines HT-29 were purchased from the ATCC (Manassas, Va. USA). HT-29 were maintained in Dubecco's Modified Eagle Medium (DMEM; Gibco) supplemented with 10% FBS and 100 ng/ml penicillin and […] streptomycin (Life Technologies, Inc., Grand Island, N.Y., USA). […] The absorbance was measured at 450 nm, using a microplate reader with a reference wavelength at 600 nm or over. […]
The effects on cell viability after the treatments with different concentrations of the Angelicae sinensis extracts or the active components purified therefrom were evaluated by modified MTT assay in triplicate. […] Absorbance at 550 nm of the solutions was measured with MRX Microtiter Plate Luminometer (DYNEX, USA). The absorbance of untreated cells was considered as 100%. […]

[7] = tested on: CL1-5; assay: Cytotoxicity (IC50) on CL1-5; type: cell-based; settings: Homo sapiens
Experimental: as §2, §4

[8] = tested on: brain tumor cell lines; assay: Cytotoxicity (IC50) on brain tumor cell lines, pooled statement; type: cell-based; settings: read-out: IC50 to brain tumor cell lines
Experimental: as §3

[9] = tested on: HUVEC; assay: Tube formation of HUVEC; type: cell-based, human
[10] = tested on: DBTRG-05MG cells; assay: s.c. xenograft human GBM tumors in nude mice, BP; type: in vivo, Foxn1 nude mice
Experimental: The RG2 cells (rat GBM) and DBTRG-05MG cells (human GBM) were used in animal experiments to monitor the anti-tumor activities of AS-C and BP. Male F344 rat (230-260 g) and male Foxn1 nu/nu mice (10-12 weeks) were obtained from National Laboratory Animal Center (Taipei, Taiwan). All procedures were performed in compliance with the Standard Operation Procedures of the Laboratory Animal Center of Tzu Chi University (Hualien, Taiwan). Animals were kept under pathogen-free conditions and fed a standard laboratory diet. The DBTRG-05MG cells (human GBM) and RG2 cells (rat GBM) were prepared for nude mice xenografts and rat allogenics, respectively.
Animals (Foxn1 nude mice) in six groups (6/group) were implanted subcutaneously (s.c.) with 1×10^6 DBTRG-05MG cells, and randomly treated with BP s.c. (70, 150, 300, 500, 800 mg/kg/day) or vehicle s.c. at a site remote (>2 cm) from the incubated tumor after tumor cell implantation, at day 4, 5, 6, 7 and 8 for all five dosages. Tumor size was measured every 2 days and tumor volume was calculated. Animals were sacrificed when tumor exceeded 1000 mm^3. Tumor growth was monitored for 3 months for those not sacrificed. Survival rate was followed for up to 200 days.

For `CCCC=C1OC(=O)c2ccccc21` [BP, n-Butylidenephthalide], which IC50 ([1]; Table 1, value in parentheses) is on record?
Its IC50 is > 532 µM.

What about the IC50 ([1]; Table 1) of the same compound?
Its IC50 is > 100 µg/mL.

And the IC50 [2]?
Its IC50 is 1600 µM.

What about the IC50 ([3]; Table 1, value in parentheses) of the same compound?
The IC50 was > 106 µM.

And the IC50 ([3]; cancer cells, Table 1)?
Its IC50 is > 20 µg/mL.

And the IC50 ([4]; Table 1, value in parentheses)?
Its IC50 is 7.45 µM.

And the IC50 ([4]; Table 2)?
The IC50 was 1.4 µg/mL.

What about the IC50 ([4]; Table 2, value in parentheses) of the same compound?
The IC50 was 7.45 µM.

And the IC50 ([4]; cancer cells, Table 1)?
The IC50 was 1.4 µg/mL.

And the IC50 ([5]; Table 2)?
The IC50 was 8 to 12 µg/mL.

And the IC50 ([5]; Table 2, value in parentheses)?
The IC50 was 42.6 to 63.8 µM.

What about the IC50 ([6]; Table 2) of the same compound?
The IC50 was 15 to 97 µg/mL.

What about the IC50 ([6]; Table 2, value in parentheses) of the same compound?
The IC50 was 79.8 to 516 µM.

What about the IC50 ([7]; Table 2) of the same compound?
Its IC50 is > 100 µg/mL.

What about the IC50 ([7]; Table 2, value in parentheses) of the same compound?
Its IC50 is > 532 µM.

And the IC50 [8]?
The IC50 was 1.4 to 10 µg/mL (≈ 7.44 to 53.1 µM).

And the “Inhibition Tube Formation” value [9]?
Its value is 531.3 µg/mL.

And the “Inhibition Tube Formation” value ([9]; value in parentheses)?
The value was “(2826 μM)”.

What about the “tumor growth compared with untreated group” value ([10]; BP s.c. 70-800 mg/kg/day day 4-8, dose dependent, p<0.005 for 300 mg/kg) of the same compound?
Its value is “significant suppressions of tumor growth”.

What about the “survival period of nude mice” value ([10]; BP s.c. 70-800 mg/kg/day, followed for up to 200 days) of the same compound?
The value was “up to 200 days”.
